# Measurements published in patent publication US4416877A, “Anti-atherosclerotic pharmaceutical compositions containing diphosphonate compounds” (priority 1979, dated 1983).
# Like-named read-outs stand apart in the source and are kept apart here.
# Experiments:
# [1] = tested on: lipid metabolism; experiment: Effects of diphosphonates on lipid metabolism in normal rats (serum lipids, α/β cholesterol); format: in vivo, male Wistar rats; conditions: for change in vivo at 200 mg/kg/day: Rattus norvegicus, po, normal rats (N), 200 mg/kg/day p.o.
# In short: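 Normal male Wistar rats (~200 g, 4–5/group) dosed orally with diphosphonates 200 mg/kg/day for 4–21 days, in 24 mM bicarbonate buffer or corn oil. Serum taken after overnight fast; free fatty acids, triglycerides, phospholipids and heparin/CaCl2-precipitated β-lipoprotein cholesterol measured. Values given as % of control; <15% difference deemed non-significant.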
# [2] = Oral LD50 toxicity; format: in vivo
# Excerpt: Following the extensive pharmacological screening of these compounds, using over 2000 animals, those showing the most potential were then subjected to toxicity testing for further selection relative to their activity/toxicity risk profiles
# By way of LD50 (Lethal Dose 50) the methyl diphosphonates were discovered to have a significant lower degree of toxicity. […] This represents a significant six fold difference in toxicity.
# [3] = tested on: lipoprotein cholesterol; experiment: Lipoprotein cholesterol changes in normal rats treated for 90 days; format: in vivo, male and female rats
# Procedure: Treating male and female rats with 40, 400 and 800 mg/kg of compound 16 per day for 90 days produced a sustained dose response augmentation in serum high density lipoprotein cholesterol (HDL-C or α-cholesterol) as high as 220% above controls at high dose level (Table VI).
# *Plasma was pooled from 5 animals of each group and analyzed.
# [4] = tested on: aorta cholesterol; experiment: Aorta cholesterol clearing activity in cholesterol pre-fed rabbits; format: in vivo; conditions: 4 months; for Aortic Cholesterol Free/Ester Ratio / Aortic Cholesterol, Arch / Aortic Cholesterol, Thoracic / Aortic Cholesterol, Total / Aortic Phospholipids, Arch / Aortic Phospholipids, Thoracic / Aortic Phospholipids, Total: n = 5
# [5] = tested on: α/β cholesterol ratio; experiment: Lipoprotein changes produced by one dose in a Cynomolgus monkey; format: in vivo; conditions: for α/β cholesterol ratio: 250 mg/kg p.o.
# [6] = tested on: renin; experiment: Renin activity in normal monkeys treated for 60 days; format: in vivo, Cynomolgus monkeys
# Excerpt: In order to further elucidate the mechanism of the previously observed hypotensive activity, the renin-angiotensin system was also monitored in these animals at the same time. […] However at this dosage concentration the inhibition appeared to be time dependent.
# [7] = tested on: renin; experiment: Renin activity in Cynomolgus monkeys fed simultaneously a high cholesterol diet; format: in vivo; conditions: for Renin Activity: n = 7
# Procedure: | Dose: 25 mg d.i.d. per day
# [8] = simultaneous cholesterol-compound 16 treatment
smiles,measurement,setting,value
"COP(=O)(OC)OC(c1ccc(Cl)cc1)P(=O)(OC)OC (stereo not drawn) [Compound 16, Dimethyl α(dimethoxyphosphinyl) p-chlorobenzyl phosphate]",change in vivo at 200 mg/kg/day,[1]; read-out: Serum Chol. α/β (% control values),121%
same,change in vivo at 200 mg/kg/day,[1]; read-out: Serum Free Fatty Acids (% control values),-50%
same,change in vivo at 200 mg/kg/day,[1]; read-out: Serum Phospholipids (% control values),26%
same,change in vivo at 200 mg/kg/day,[1]; read-out: Serum Triglycerides (% control values),< 15%
same,"increased HDL lipids, especially HDL cholesterol",[1]; normal rats,observed most dramatically
same,increase in serum phospholipid,[1]; rats,found to increase
same,α-cholesterol/β-cholesterol ratio / lipoprotein cholesterol,[1]; rats,highly significant activity
same,LD50,"[2]; in vivo, oral",3040 mg/kg
same,"difference in toxicity (LD50, compound 16 vs compound 24)",[2]; oral LD50,six fold
same,α-chol,"[3]; 40 mg/kg, female",54 mg/dL
same,α/β ratio,"[3]; 40 mg/kg, female",6.0
same,β-chol,"[3]; 40 mg/kg, female",9.0 mg/dL
same,α-chol,"[3]; 40 mg/kg, male",63 mg/dL
same,α/β ratio,"[3]; 40 mg/kg, male",7.6
same,β-chol,"[3]; 40 mg/kg, male",8.3 mg/dL
same,α-chol,"[3]; 400 mg/kg, female",68 mg/dL
same,α/β ratio,"[3]; 400 mg/kg, female",11.5
same,β-chol,"[3]; 400 mg/kg, female",5.9 mg/dL
same,α-chol,"[3]; 400 mg/kg, male",78 mg/dL
same,α/β ratio,"[3]; 400 mg/kg, male",11.5
same,β-chol,"[3]; 400 mg/kg, male",7.6 mg/dL
same,α-chol,"[3]; 800 mg/kg, female",117 mg/dL
same,α/β ratio,"[3]; 800 mg/kg, female",11.3
same,β-chol,"[3]; 800 mg/kg, female",10.3 mg/dL
same,α-chol,"[3]; 800 mg/kg, male",128 mg/dL
same,α/β ratio,"[3]; 800 mg/kg, male",10.7
same,β-chol,"[3]; 800 mg/kg, male",11.9 mg/dL
same,augmentation in serum HDL-C (α-cholesterol) above controls,[3]; high dose level (800 mg/kg),≤ 220%
same,Aortic Cholesterol Free/Ester Ratio,[4]; 100 mg/kg/day,0.5 ± 0.1
same,"Aortic Cholesterol, Arch",[4]; 100 mg/kg/day,17.9 ± 2.9 mg/g
same,"Aortic Cholesterol, Thoracic",[4]; 100 mg/kg/day,10.6 ± 2.8 mg/g
same,"Aortic Cholesterol, Total",[4]; 100 mg/kg/day,20.8 ± 6.5 mg/Aorta
same,"Aortic Phospholipids, Arch",[4]; 100 mg/kg/day,4.6 ± 1.4 mg/g
same,"Aortic Phospholipids, Thoracic",[4]; 100 mg/kg/day,4.5 ± 1.5 mg/g
same,"Aortic Phospholipids, Total",[4]; 100 mg/kg/day,6.5 ± 1.6 mg/Aorta
same,Aortic Cholesterol Free/Ester Ratio,[4]; 200 mg/kg/day,0.4 ± 0.1
same,"Aortic Cholesterol, Arch",[4]; 200 mg/kg/day,22.8 ± 3.4 mg/g
same,"Aortic Cholesterol, Thoracic",[4]; 200 mg/kg/day,11.0 ± 4.2 mg/g
same,"Aortic Cholesterol, Total",[4]; 200 mg/kg/day,18.3 ± 6.7 mg/Aorta
same,"Aortic Phospholipids, Arch",[4]; 200 mg/kg/day,5.9 ± 1.3 mg/g
same,"Aortic Phospholipids, Thoracic",[4]; 200 mg/kg/day,4.9 ± 1.9 mg/g
same,"Aortic Phospholipids, Total",[4]; 200 mg/kg/day,7.9 ± 1.8 mg/Aorta
same,"pre-established cholesterol deposits, aorta",[4]; cholesterol pre-fed rabbits,effectively decreased the pre-established cholesterol deposits
same,α/β cholesterol ratio,[5]; +1h,0.71
same,α/β cholesterol ratio,[5]; +2h,0.82
same,α/β cholesterol ratio,[5]; +3h,0.83
same,α/β cholesterol ratio,[5]; +5h,0.89
same,α/β cholesterol ratio,[5]; +6h,0.92
same,α/β ratio,"[5]; additional administration, 5 days",0.88
same,increase in α/β cholesterol levels,"[5]; single oral dose 250 mg/kg, 6 hours",39%
same,Renin Activity,[6]; controls 5.9±0.9,0.3±0.1 ng AI /ml/h
same,inhibition of renin,[6]; male and female monkeys,highly significant and almost complete inhibition of renin
same,Renin Activity,[7]; 30 days on high cholesterol diet,0.8 ± 0.5 ng AI /ml/h
same,Renin Activity,[7]; 60 days on high cholesterol diet,1.1 ± 0.2 ng AI /ml/h
same,renin inhibition,[7]; [8],essentially completely inhibited
same,"renin inhibition, fold",[7]; [8],20 fold
